According to PMC10853753, “Structure Prediction and Genome Mining‐Aided Discovery of the Bacterial C‐Terminal Tryptophan Prenyltransferase PalQ” (Advanced Science, 2023):

Molecular target: T1, PalQ (Paenibacillus alvei, UniProt A0ABT4H1V4)
T1 construct: gene M5X12_20665; homodimer by size exclusion chromatography
T1 sequence (A0ABT4H1V4 1-312): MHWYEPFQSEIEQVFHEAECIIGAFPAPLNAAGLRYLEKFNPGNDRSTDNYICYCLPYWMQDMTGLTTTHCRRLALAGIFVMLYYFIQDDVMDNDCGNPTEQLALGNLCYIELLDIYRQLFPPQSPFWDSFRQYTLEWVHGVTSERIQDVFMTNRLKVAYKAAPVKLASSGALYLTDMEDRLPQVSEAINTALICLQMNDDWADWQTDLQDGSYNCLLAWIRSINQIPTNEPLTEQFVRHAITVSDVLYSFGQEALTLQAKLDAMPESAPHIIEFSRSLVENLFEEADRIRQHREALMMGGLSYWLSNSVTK
Assay: prenylation kinetics, Michaelis-Menten curve
Assay type: biochemical
Conditions: acceptor PalX; curve without saturation, poor water solubility

Structure (SMILES)	prenylation kinetics, Michaelis-Menten curve
CC(C)=CCC/C(C)=C/CC/C(C)=C/COP(=O)(O)OP(=O)(O)O [FPP]	We then assessed the kinetics of PalQ for DMAPP, GPP, and FPP.
CC(C)=CCC/C(C)=C/COP(=O)(O)OP(=O)(O)O [GPP]	We then assessed the kinetics of PalQ for DMAPP, GPP, and FPP.
